Assay results reported in US20080194522A1, “Development of Fluorogenic Substrates For Monoamine Oxidases (Mao-A and Mao-B)” (priority 2004, published 2008).
Entries after “also recorded” stand apart in the source; their conditions may differ.

Assays:
[1] = Photophysical characterization (absorbance, extinction coefficient, emission, quantum yield); type: physicochemical; settings: for fluorescence, in words: aqueous / phosphate buffer
Description: Extinction coefficients were the average of three independent determinations of three different readings from the lowest energy transition at three concentrations. Quantum yields are the average of three determinations of both quantum yield standard 9,10-diphenylanthracene and the synthesized coumarines at 340 nm unless otherwise indicated.
All spectra were recorded in 100 mM sodium phosphate (pH 7.4) unless otherwise indicated. Recorded λmax is that of the longest wavelength transition. Extinction coefficients were reported as the average of at least three independent preparations of the probes. Fluorescence measurements were taken on a Jobin Yvon Fluorolog fluorescence spectrofluorometer (slits 3, HV 750) in 100 mM sodium phosphate pH 7.4 buffer unless otherwise indicated. Quantum yields were measured relative to 9,10 diphenylanthracene in EtOH.4 Reported quantum efficiencies are the average of at least three independent preparations of the probes.
The extinction coefficient ε relates the absorbance of a compound to its concentration as expressed in Beer's law (A=εbc where A is absorbance, b is pathlength, and c is concentration). Extinction coefficients were the average of three independent determinations of three different readings of absorbance from the lowest energy transition at three concentrations. The quantum yield of fluorescence is the fraction of absorbed photons that lead to fluorescence; the number of photons fluoresced divided by the number of photons absorbed. To obtain the quantum yields of the synthesized coumarines their efficiency was compared to standard 9,10-diphenylanthracene at 340 nm in three different determinations. The effect of different solvents on the fluorescence of the compounds was also tested. The compounds were dissolved in methanol, chloroform and toluene and their emissions spectrum was taken.

[2] = target: T1, MAO-B (Bos taurus, UniProt P56560); assay: Monoamine oxidase B substrate assay, beef liver mitochondria, fluorescence detection of indole product
T1 sequence (P56560 1-520): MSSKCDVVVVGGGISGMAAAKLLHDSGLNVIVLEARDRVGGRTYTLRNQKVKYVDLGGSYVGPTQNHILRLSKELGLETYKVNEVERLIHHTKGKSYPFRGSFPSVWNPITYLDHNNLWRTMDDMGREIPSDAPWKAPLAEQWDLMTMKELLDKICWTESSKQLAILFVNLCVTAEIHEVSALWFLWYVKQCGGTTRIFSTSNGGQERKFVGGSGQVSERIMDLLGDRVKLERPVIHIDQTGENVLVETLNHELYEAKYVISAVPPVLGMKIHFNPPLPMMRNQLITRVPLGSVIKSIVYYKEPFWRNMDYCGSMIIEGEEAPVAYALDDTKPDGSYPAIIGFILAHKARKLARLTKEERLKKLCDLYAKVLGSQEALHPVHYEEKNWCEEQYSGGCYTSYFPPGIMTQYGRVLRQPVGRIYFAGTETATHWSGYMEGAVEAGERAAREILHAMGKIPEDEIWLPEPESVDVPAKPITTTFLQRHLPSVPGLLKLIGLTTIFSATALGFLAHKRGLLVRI

[3] = target: T2, MAO-A (Homo sapiens, UniProt P21397); assay: Monoamine oxidase A substrate assay, human placenta mitochondria, fluorescence detection of indole product
T2 sequence (P21397 1-527): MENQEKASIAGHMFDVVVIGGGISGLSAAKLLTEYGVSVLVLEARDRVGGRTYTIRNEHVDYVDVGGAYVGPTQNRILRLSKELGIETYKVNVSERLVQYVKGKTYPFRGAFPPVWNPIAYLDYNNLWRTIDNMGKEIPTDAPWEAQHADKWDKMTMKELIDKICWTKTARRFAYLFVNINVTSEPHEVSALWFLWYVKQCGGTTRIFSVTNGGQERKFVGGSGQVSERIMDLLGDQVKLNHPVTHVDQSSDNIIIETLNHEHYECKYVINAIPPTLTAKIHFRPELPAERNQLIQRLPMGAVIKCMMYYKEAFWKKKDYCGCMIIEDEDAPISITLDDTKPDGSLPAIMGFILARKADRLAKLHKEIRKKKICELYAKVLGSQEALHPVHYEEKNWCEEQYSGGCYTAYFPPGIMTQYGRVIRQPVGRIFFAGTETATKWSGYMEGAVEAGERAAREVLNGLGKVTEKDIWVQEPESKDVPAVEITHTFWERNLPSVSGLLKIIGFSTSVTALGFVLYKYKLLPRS

[4] = Fluorescence switch / apparent fluorescence increase, product versus substrate; type: physicochemical
Description: Apparent fluorescence increase was calculated by comparing the slopes (arbitrary fluorescence units/μM) of standard curves of chemically synthesized product and substrate concentration versus fluorescence intensity. Calculation of the apparent fluorescence increase is shown below for probe 9, which has a 21000% apparent fluorescence increase in emission intensity at λem=524 nm. The constants fP and fS were calculated from the slope of a line of fluorescence intensity versus concentration of chemically synthesized product indole 10 and substrate 9, respectively. These slopes were obtained from calibration curves of at least five concentrations of 9 and 10 in phosphate buffer (pH 7.4). The preparations of the compounds in mitochondrial assay buffer have negligible effects on fS and fP.

[5] = Solubility in aqueous solution; type: physicochemical; settings: in words
[6] = Chemical stability; settings: in words
[7] = 24-hour incubation, room temperature, pH 7.4

| Compound | fluorescence, in words [1] | fluorescence emission intensity increase, indole/pyrrolocoumarin versus aniline/aminocoumarin [4] | solubility in aqueous solution [5] | chemical stability [6] | other results |
| --- | --- | --- | --- | --- | --- |
| NCCc1cc2oc(=O)ccc2cc1N [III] | – | – | – | – | Φ ([1]; Table 2, in water, relative to 9,10-diphenyl anthracene (excited at 340 nm)): 0.0017; ε (M^−1cm^−1) ([1]; Table 2 diamines, in water): 2,000 ± 100 M^−1cm^−1; λmax (nm) ([1]; Table 2 diamines, in water): 352 nm; enzyme-catalyzed conversion of diamine to indole [2, 7]: significant conversion; kcx ([2]; Table 6, Monoamine Oxidase B): 20.62 min⁻¹; substrate quality for MAO-B ([2]; in words): good substrate for MAO-B; enzyme-catalyzed conversion of diamine to indole [3, 7]: significant conversion; kcx ([3]; Table 6, Monoamine Oxidase A): 0.475 min⁻¹; substrate quality for MAO-A ([3]; in words): good substrate for MAO-A |
| CCN(CC)c1ccc2c(C)c(-c3ccc4[nH]ccc4c3)c(=O)oc2c1 [Probe 17, 7-Diethylamino-3-(1H-indol-5-yl)-4-methyl-chromen-2-one] | highly fluorescent | 12 fold | reasonably soluble | chemically and photo-physically stable | emission wavelength [1]: 475 nm |
| Cc1c(-c2ccc(N)c(CCO)c2)c(=O)oc2c3c4c(cc12)CCCN4CCC3 [Probe 23, 9-[4-Amino-3-(2-hydroxy-ethyl)-phenyl]-8-methyl-2,3,5,6-tetrahydro-1H, 4H-11-oxa-3a-aza-benzo[de]anthracen-10-one] | – | 6 fold | – | – | – |
| O=c1ccc2cc3[nH]ccc3cc2o1 [Probe 59, 1H-Pyrano[2,3-f]indol-6-one] | quite fluorescent | around 2000 fold | – | – | – |
| CCN(CC)c1ccc2c(C)c(-c3ccc(N)c(CCN)c3)c(=O)oc2c1 [Probe 114, 3-[4-Amino-3-(2-amino-ethyl)-phenyl]-7-diethylamino-4-methyl-chromen-2-one] | – | – | water solubility | desired chemical stability | – |
| CCN(CC)c1ccc2c(C)c(-c3ccc(N)c(CCO)c3)c(=O)oc2c1 [Probe 16, 3-[4-Amino-3-(2-hydroxy-ethyl)-phenyl]-7-diethylamino-4-methyl-chromen-2-one] | much less fluorescent than Probe 17 | – | reasonably soluble | chemically and photo-physically stable | – |
| Cc1cc(=O)oc2ccc(N)c(CCO)c12 [Probe 57, 6-Amino-5-(2-hydroxy-ethyl)-4-methyl-chromen-2-one] | essentially non-fluorescent; also recorded: very weakly fluorescent | – | very soluble | chemically and photo-physically stable | – |
